Data as given in the supplement of paper PMC11061612.

How the values were obtained:
[1] = compound: CC1=C(C(=CC=C1)Cl)NC(=O)C2=CN=C(S2)NC3=CC(=NC(=N3)C)N4CCN(CC4)CCO [Dasatinib]; settings: max 2 µM
Outline: (§1)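 After 24 hours at 37°C and 5% CO2 in 1536-well plates holding 7.5 μl of DMEM/F12 or RPMI with 10% FBS, cancer cell lines were dosed for 72 hours, with final DMSO typically 0.2%. Viability came from CellTiter-Glo 2.0 luminescence, scaled between the means of blank wells and DMSO wells. A non-linear mixed effects model fitted a two-parameter logistic curve to each dose response to give the single-agent IC50.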

[2] = compound: CC1(C)CCC(CN2CCN(c3ccc(C(=O)NS(=O)(=O)c4ccc(NCC5CCOCC5)c([N+](=O)[O-])c4)c(Oc4cnc5[nH]ccc5c4)c3)CC2)=C(c2ccc(Cl)cc2)C1 [Venetoclax]; settings: max 1 µM
Outline: as §1

[3] = compound: CCN(CCO)CCCOc1ccc2c(Nc3cc(CC(=O)Nc4cccc(F)c4)[nH]n3)ncnc2c1 [AZD2811]; settings: max 1 µM
Outline: as §1

[4] = compound: CS(=O)(=O)CCNCc1ccc(-c2ccc3ncnc(Nc4ccc(OCc5cccc(F)c5)c(Cl)c4)c3c2)o1 [Lapatinib]; settings: max 10 µM
Outline: as §1

[5] = compound: Cc1nc(-c2cn3c(n2)-c2ccc(-c4cnn(C(C)(C)C(N)=O)c4)cc2OCC3)n(C(C)C)n1 [Taselisib]; settings: max 10 µM
Outline: as §1

[6] = compound: COc1cc2ncnc(Nc3ccc(F)c(Cl)c3)c2cc1OCCCN1CCOCC1 [Gefitinib]; settings: max 10 µM
Outline: as §1

[7] = compound: C[C@@H]1COCCN1C2=NC(=NC(=C2)C3(CC3)[S@](=N)(=O)C)C4=C5C=CNC5=NC=C4 [AZD6738]; settings: max 10 µM
Outline: as §1

[8] = compound: CC(=O)Nc1cccc(-n2c(=O)n(C3CC3)c(=O)c3c(Nc4ccc(I)cc4F)n(C)c(=O)c(C)c32)c1 [Trametinib]; settings: max 1 µM
Outline: as §1

[9] = compound: CC1=CN2[C@@H](C1)C=NC3=CC(=C(C=C3C2=O)OC)OCCCCCOC4=C(C=C5C(=C4)N=C[C@@H]6CC(=CN6C5=O)C)OC [SG3199]; settings: max 0.001 µM
Outline: as §1

[10] = compound: COc1nnc2ccc(N3CCC(c4ccc(OCCN5CCN(C)C(=O)[C@H]5C)cc4)CC3)nn12 [AZD5153]; settings: max 1 µM
Outline: as §1

[11] = compound: COc1cccc2c1C(=O)c1c(O)c3c(c(O)c1C2=O)C[C@@](O)(C(=O)CO)C[C@@H]3O[C@H]1C[C@H](N)[C@H](O)[C@H](C)O1 [Doxorubicin]; settings: max 1 µM
Outline: as §1

[12] = compound: C[C@@H](c1ccc2nccn2c1)n1nnc2ncc(-c3cnn(C)c3)nc21 [Savolitinib]; settings: max 1 µM
Outline: as §1

[13] = compound: C=CCn1c(=O)c2cnc(Nc3ccc(N4CCN(C)CC4)cc3)nc2n1-c1cccc(C(C)(C)O)n1 [AZD1775]
Outline: as §1

[14] = compound: Cn1cnc2c(F)c(Nc3ccc(Br)cc3Cl)c(C(=O)NOCCO)cc21 [Selumetinib]; settings: max 10 µM
Outline: as §1

[15] = compound: CCc1c2c(nc3ccc(O)cc13)-c1cc3c(c(=O)n1C2)COC(=O)[C@]3(O)CC [SN-38]; settings: max 0.3 µM
Outline: as §1

[16] = compound: CC(=O)c1c(C)c2cnc(Nc3ccc(N4CCNCC4)cn3)nc2n(C2CCCC2)c1=O [Palbociclib]; settings: max 10 µM
Outline: as §1

[17] = compound: O=C(c1cc(Cc2n[nH]c(=O)c3ccccc23)ccc1F)N1CCN(C(=O)C2CC2)CC1 [Olaparib]; settings: max 10 µM
Outline: as §1

[18] = compound: COc1cccc(OCCCN)c1-c1cc(Nc2cnc(C#N)cn2)n[nH]1 [Prexasertib]; settings: max 1 µM
Outline: as §1

[19] = compound: COc1cc(Nc2ncc3c(n2)-c2ccc(Cl)cc2C(c2c(F)cccc2OC)=NC3)ccc1C(=O)O [Alisertib]; settings: max 10 µM
Outline: as §1

[20] = compound: Cc1c2c(nn1C)CSCc1cc(n(C)n1)CSc1cc(c3ccccc3c1)OCCCc1c(C(=O)O)n(C)c3c-2c(Cl)ccc13 [AZD5991]; settings: max 1 µM
Outline: as §1

[21] = compound: CC(C)n1c(=O)n(C)c2cnc3cc(F)c(-c4ccc(OCCCN5CCCCC5)nc4)cc3c21 [AZD1390]; settings: max 0.3 µM
Outline: as §1

[22] = compound: Cc1cc2ncnn2cc1Nc1ncc2c(n1)n(C1CCOCC1)c(=O)n2C [AZD7648]; settings: max 10 µM
Outline: as §1

[23] = compound: C[C@@H](Nc1cc(F)cc(F)c1)c1cc(C(=O)N(C)C)cc2c(=O)cc(N3CCOCC3)oc12 [AZD8186]; settings: max 3 µM
Outline: as §1

[24] = compound: C1CN(CCC1(C(=O)N[C@@H](CCO)C2=CC=C(C=C2)Cl)N)C3=NC=NC4=C3C=CN4 [Capivasertib]; settings: max 10 µM
Outline: as §1

[25] = compound: CN(C)CCCOc1ccc(-c2ccc3ncc4c(c3c2)n(C2CCOCC2)c(=O)n4C)cn1 [AZD0156]
Outline: as §1

[26] = compound: CN(CC[C@H](CSC1=CC=CC=C1)NC2=C(C=C(C=C2)S(=O)(=O)NC(=O)C3=CC=C(C=C3)N4CCC(CC4)[C@H](C5=CC=CC=C5C6=CC=C(C=C6)Cl)O)S(=O)(=O)C(F)(F)F)CCO [AZD4320]; settings: max 1 µM
Outline: as §1

[27] = compound: C[C@@H](Oc1cc(-c2cnn(C3CCNCC3)c2)cnc1N)c1c(Cl)ccc(F)c1Cl [Crizotinib]; settings: max 10 µM
Outline: as §1

| Cell Line | IC50, cell viability 72 h [1] [nM] | IC50, cell viability 72 h [2] [nM] | IC50, cell viability 72 h [3] [nM] | IC50, cell viability 72 h [4] [nM] | IC50, cell viability 72 h [5] [nM] | IC50, cell viability 72 h [6] [nM] | IC50, cell viability 72 h [7] [nM] | IC50, cell viability 72 h [8] [nM] | IC50, cell viability 72 h [9] [nM] | IC50, cell viability 72 h [10] [nM] | IC50, cell viability 72 h [11] [nM] | IC50, cell viability 72 h [12] [nM] | IC50, cell viability 72 h ([13]; max 3 µM) [nM] | IC50, cell viability 72 h [14] [nM] | IC50, cell viability 72 h [15] [nM] | IC50, cell viability 72 h [16] [nM] | IC50, cell viability 72 h [17] [nM] | IC50, cell viability 72 h [18] [nM] | IC50, cell viability 72 h [19] [nM] | IC50, cell viability 72 h [20] [nM] | IC50, cell viability 72 h [21] [nM] | IC50, cell viability 72 h [22] [nM] | IC50, cell viability 72 h [23] [nM] | IC50, cell viability 72 h [24] [nM] | IC50, cell viability 72 h ([25]; max 3 µM) [nM] | IC50, cell viability 72 h [26] [nM] | IC50, cell viability 72 h [27] [nM] | IC50, cell viability 72 h ([13]; max 1 µM) [nM] | IC50, cell viability 72 h ([25]; max 1 µM) [nM] |
| --- | --- | --- | --- | --- | --- | --- | --- | --- | --- | --- | --- | --- | --- | --- | --- | --- | --- | --- | --- | --- | --- | --- | --- | --- | --- | --- | --- | --- | --- |
| A704 (Kidney Carcinoma) | 110 | > 1000 | > 1000 | 8790 | > 10000 | > 10000 | > 10000 | > 1000 | > 1 | 538 | > 1000 | > 1000 | 2510 | > 10000 | 274 | > 10000 | > 10000 | > 1000 | 5350 | > 1000 | > 300 | > 10000 | 1540 | > 10000 | > 3000 | > 1000 | > 10000 |  |  |
| BT-20 (Breast Carcinoma) | > 2000 | > 1000 | > 1000 | > 10000 | 297 | > 10000 | > 10000 | 202 | > 1 | > 1000 | > 1000 | > 1000 | 1440 | > 10000 | 57.7 | > 10000 | > 10000 | 319 | 9860 | > 1000 | > 300 | > 10000 | > 3000 | 1210 | > 3000 | > 1000 | > 10000 |  |  |
| BV-173 (Chronic Myelogenous Leukemia) | < 2 | 50.4 | 6.95 | 4020 | > 10000 | > 10000 | 260 | 57.2 | > 1 | 65.1 | 46.5 | > 1000 | 294 | 2330 | 1.42 | 3940 | 3250 | 4.79 | 38.5 | 30.6 | > 300 | > 10000 | > 3000 | 4140 | > 3000 | 5.26 | 497 |  |  |
| DG-75 (Burkitt's Lymphoma) | > 2000 | > 1000 | > 1000 | 8870 | > 10000 | > 10000 | 1390 | > 1000 | > 1 | 24.4 | 453 | > 1000 | 424 | > 10000 | 38.7 | 1250 | > 10000 | 33.5 | > 10000 | > 1000 | > 300 | > 10000 | > 3000 | > 10000 | > 3000 | > 1000 | 6980 |  |  |
| EBC-1 (Squamous Cell Lung Carcinoma) | > 2000 | > 1000 | > 1000 | > 10000 | 5250 | > 10000 | > 10000 | 23.9 | > 1 | 80.5 | > 1000 | 4.07 | 2940 | 1100 | 3.58 | > 10000 | > 10000 | 596 | > 10000 | > 1000 | > 300 | > 10000 | > 3000 | > 10000 | > 3000 | 585 | 59 |  |  |
| EMC-BAC-2 (Non-Small Cell Lung Carcinoma) | 995 | > 1000 | > 1000 | > 10000 | 2320 | > 10000 | > 10000 | 198 | > 1 | 220 | 959 | > 1000 | > 3000 | > 10000 | 169 | > 10000 | > 10000 | > 1000 | 5480 | 873 | > 300 | > 10000 | > 3000 | > 10000 | > 3000 | > 1000 | > 10000 |  |  |
| EW-13 (Ewing's Sarcoma) | > 2000 | > 1000 | > 1000 | > 10000 | > 10000 | > 10000 | > 10000 | > 1000 | > 1 | > 1000 | 467 | > 1000 |  | > 10000 | 8.64 | > 10000 | > 10000 | 829 | > 10000 | > 1000 | > 300 | > 10000 | > 3000 | > 10000 |  | 270 | > 10000 | > 1000 | > 1000 |
| EW-18 (Ewing's Sarcoma) | > 2000 | > 1000 | 131 | > 10000 | 1240 | > 10000 | 3990 | > 1000 | > 1 | 376 | > 1000 | > 1000 | 359 | > 10000 | 106 | > 10000 | > 10000 | 43.2 | 853 | 60 | > 300 | > 10000 | > 3000 | 2440 | > 3000 | 45.4 | 1850 |  |  |
